In patent US20100267561A1, “HERBICIDAL PYRIDAZINONE DERIVATIVES” (priority 2007, published 2010):

Assays:
Assay in all cases: Test B pre-/postemergence plant response
Type in all cases: in vivo
[1] = test system: Italian ryegrass (Lolium multiflorum); conditions: for Ryegrass, Italian plant response rating: 8 g ai/ha
In short: (§1)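 Seeds were sown and sprayed preemergence, while plants at 2 to 18 cm (1- to 4-leaf stage) got postemergence sprays. Compounds were formulated in a non-phytotoxic solvent mixture with surfactant. After 13 to 15 days in a greenhouse, injury was rated visually against untreated controls, 0 (no effect) to 100 (complete control).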

corn (Zea mays) = conditions: for Corn plant response rating: 8 g ai/ha
In short: as §1

kochia (Kochia scoparia) = conditions: for Kochia plant response rating: 8 g ai/ha
In short: as §1

[2] = test system: common (oilseed) sunflower (Helianthus annuus); conditions: Preemergence
In short: as §1

[3] = test system: surinam grass (Brachiaria decumbens); conditions: for Surinam Grass plant response rating: 8 g ai/ha
In short: as §1

[4] = test system: eastern black (E.B.) nightshade (Solanum ptycanthum); conditions: Preemergence
In short: as §1

[5] = test system: pigweed (Amaranthus retroflexus); conditions: for Pigweed plant response rating: 8 g ai/ha
In short: as §1

[6] = test system: green foxtail (Setaria viridis); conditions: for Foxtail, Green plant response rating: 8 g ai/ha
In short: as §1

[7] = test system: common ragweed (Ambrosia elation); conditions: for Ragweed plant response rating: 8 g ai/ha
In short: as §1

[8] = test system: Russian thistle (Salsola iberica); conditions: Preemergence; for Plant response rating, Russian Thistle: scale 0 to 100 (0 no effect, 100 complete control)
In short: as §1

[9] = test system: yellow nutsedge (Cyperus esculentus); conditions: for Nutsedge, Yellow plant response rating: 8 g ai/ha
In short: as §1

[10] = test system: johnsongrass (Sorghum halepense); conditions: for Johnsongrass plant response rating: 8 g ai/ha
In short: as §1

[11] = test system: giant foxtail (Setaria faberii); conditions: for Foxtail, Giant plant response rating: 8 g ai/ha
In short: as §1

[12] = test system: goosegrass (Eleusine indica); conditions: for Goosegrass plant response rating: 8 g ai/ha
In short: as §1

[13] = Postemergence, 16 g ai/ha, scale 0 to 100
[14] = Postemergence, 31 g ai/ha, scale 0 to 100
[15] = Postemergence, 62 g ai/ha, scale 0 to 100, 0 no effect, 100 complete control
[16] = Preemergence, 16 g ai/ha, scale 0 to 100 (0 no effect, 100 complete control)
[17] = Preemergence, 31 g ai/ha, scale 0 to 100 (0 no effect, 100 complete control)
[18] = Preemergence, 62 g ai/ha, scale 0 to 100
[19] = Preemergence, 31 g ai/ha, 0 to 100 scale, 0 no effect, 100 complete control
[20] = 16 g ai/ha, scale 0 to 100 (0 no effect, 100 complete control)
[21] = 31 g ai/ha, scale 0 to 100 (0 no effect, 100 complete control)

Q: Which “Ryegrass, Italian plant response rating” value ([1]; postemergence, 0-100 scale) does the source give for `Cn1ncc(O)c(-n2nc(-c3ccc(Cl)cc3)cc2C2CC2)c1=O` [Compound 45] here?
A: 70

Q: And the “Plant response rating, Ryegrass, Italian” value [1, 13]?
A: 90

Q: What about the “Plant response rating, Ryegrass, Italian” value [1, 14] of the same compound?
A: 100

Q: What about the “Plant response rating, Ryegrass, Italian” value [1, 15] of the same compound?
A: 100

Q: And the “Plant response rating, Ryegrass, Italian” value [1, 16]?
A: 90

Q: What about the “Plant response rating, Ryegrass, Italian” value [1, 17] of the same compound?
A: 100

Q: And the “Plant response rating, Ryegrass, Italian” value [1, 18]?
A: 100

Q: What about the “Ryegrass, Italian plant response rating” value ([1]; Preemergence, scale 0 to 100) of the same compound?
A: 0

Q: What about the “Corn plant response rating” value (corn (Zea mays); postemergence, 0-100 scale) of the same compound?
A: 85

Q: And the “Plant response rating, Corn” value (corn (Zea mays); [13])?
A: 90

Q: What about the “Plant response rating, Corn” value (corn (Zea mays); [14]) of the same compound?
A: 95

Q: And the “Plant response rating, Corn” value (corn (Zea mays); [15])?
A: 95

Q: What about the “Plant response rating, Corn” value (corn (Zea mays); [16]) of the same compound?
A: 55

Q: What about the “Plant response rating, Corn” value (corn (Zea mays); [19]) of the same compound?
A: 65

Q: What about the “Plant response rating, Corn” value (corn (Zea mays); [18]) of the same compound?
A: 98

Q: What about the “Corn plant response rating” value (corn (Zea mays); Preemergence, scale 0 to 100) of the same compound?
A: 0

Q: And the “Kochia plant response rating” value (kochia (Kochia scoparia); postemergence, 0-100 scale)?
A: 0

Q: What about the “Plant response rating, Kochia” value (kochia (Kochia scoparia); [13]) of the same compound?
A: 0

Q: And the “Plant response rating, Kochia” value (kochia (Kochia scoparia); [14])?
A: 0

Q: What about the “Plant response rating, Kochia” value (kochia (Kochia scoparia); [15]) of the same compound?
A: 0

Q: And the “Plant response rating, Kochia” value (kochia (Kochia scoparia); [16])?
A: 0

Q: And the “Plant response rating, Kochia” value (kochia (Kochia scoparia); [19])?
A: 0

Q: And the “Plant response rating, Kochia” value (kochia (Kochia scoparia); [18])?
A: 0

Q: What about the “Kochia plant response rating” value (kochia (Kochia scoparia); Preemergence, scale 0 to 100) of the same compound?
A: 0

Q: And the “Plant response rating, Sunflower” value [2, 20]?
A: 0

Q: And the “Plant response rating, Sunflower” value [2, 21]?
A: 0

Q: What about the “Plant response rating, Sunflower” value ([2]; 62 g ai/ha, scale 0 to 100) of the same compound?
A: 0

Q: What about the “Sunflower plant response rating” value ([2]; 8 g ai/ha, scale 0 to 100) of the same compound?
A: 0

Q: What about the “Surinam Grass plant response rating” value ([3]; postemergence, 0-100 scale) of the same compound?
A: 75

Q: What about the “Plant response rating, Surinam Grass” value [3, 13] of the same compound?
A: 85

Q: What about the “Plant response rating, Surinam Grass” value [3, 14] of the same compound?
A: 98

Q: And the “Plant response rating, Surinam Grass” value [3, 15]?
A: 100

Q: What about the “Plant response rating, Surinam Grass” value [3, 16] of the same compound?
A: 20

Q: And the “Plant response rating, Surinam Grass” value [3, 17]?
A: 40

Q: What about the “Plant response rating, Surinam Grass” value ([3]; Preemergence, 62 g ai/ha, 0 to 100 scale, 0 no effect, 100 complete control) of the same compound?
A: 90

Q: And the “Surinam Grass plant response rating” value ([3]; Preemergence, scale 0 to 100)?
A: 0

Q: And the “Plant response rating, Nightshade, E. B.” value [4, 20]?
A: 0

Q: And the “Plant response rating, Nightshade, E. B.” value [4, 21]?
A: 0

Q: And the “Plant response rating, Nightshade, E. B.” value ([4]; 62 g ai/ha, scale 0 to 100)?
A: 0

Q: And the “Nightshade, E. B. plant response rating” value ([4]; 8 g ai/ha, scale 0 to 100)?
A: 0

Q: What about the “Pigweed plant response rating” value ([5]; postemergence, 0-100 scale) of the same compound?
A: 0

Q: What about the “Plant response rating, Pigweed” value [5, 13] of the same compound?
A: 0

Q: And the “Plant response rating, Pigweed” value [5, 14]?
A: 0

Q: And the “Plant response rating, Pigweed” value [5, 15]?
A: 0

Q: What about the “Plant response rating, Pigweed” value [5, 16] of the same compound?
A: 0

Q: What about the “Plant response rating, Pigweed” value [5, 17] of the same compound?
A: 0

Q: And the “Plant response rating, Pigweed” value [5, 18]?
A: 0

Q: And the “Pigweed plant response rating” value ([5]; Preemergence, scale 0 to 100)?
A: 0

Q: What about the “Foxtail, Green plant response rating” value ([6]; postemergence, 0-100 scale) of the same compound?
A: 60

Q: What about the “Plant response rating, Foxtail, Green” value [6, 13] of the same compound?
A: 95

Q: And the “Plant response rating, Foxtail, Green” value [6, 14]?
A: 100

Q: What about the “Plant response rating, Foxtail, Green” value [6, 15] of the same compound?
A: 100

Q: And the “Plant response rating, Foxtail, Green” value [6, 16]?
A: 100

Q: What about the “Plant response rating, Foxtail, Green” value [6, 19] of the same compound?
A: 100

Q: And the “Plant response rating, Foxtail, Green” value [6, 18]?
A: 100

Q: What about the “Foxtail, Green plant response rating” value ([6]; Preemergence, scale 0 to 100) of the same compound?
A: 100

Q: And the “Ragweed plant response rating” value ([7]; postemergence, 0-100 scale)?
A: 0

Q: What about the “Plant response rating, Ragweed” value [7, 13] of the same compound?
A: 0

Q: What about the “Plant response rating, Ragweed” value [7, 14] of the same compound?
A: 0

Q: What about the “Plant response rating, Ragweed” value [7, 15] of the same compound?
A: 0

Q: And the “Plant response rating, Ragweed” value [7, 16]?
A: 0

Q: And the “Plant response rating, Ragweed” value [7, 17]?
A: 0

Q: And the “Plant response rating, Ragweed” value [7, 18]?
A: 0

Q: And the “Ragweed plant response rating” value ([7]; Preemergence, scale 0 to 100)?
A: 0

Q: What about the “Plant response rating, Russian Thistle” value ([8]; 16 g ai/ha) of the same compound?
A: 0

Q: What about the “Plant response rating, Russian Thistle” value ([8]; 31 g ai/ha) of the same compound?
A: 0

Q: And the “Russian Thistle plant response rating” value ([8]; 8 g ai/ha, scale 0 to 100)?
A: 0

Q: And the “Nutsedge, Yellow plant response rating” value ([9]; postemergence, 0-100 scale)?
A: 0

Q: What about the “Plant response rating, Nutsedge, Yellow” value [9, 13] of the same compound?
A: 0

Q: And the “Plant response rating, Nutsedge, Yellow” value [9, 14]?
A: 0

Q: What about the “Plant response rating, Nutsedge, Yellow” value [9, 15] of the same compound?
A: 0

Q: What about the “Plant response rating, Nutsedge, Yellow” value [9, 16] of the same compound?
A: 0

Q: And the “Plant response rating, Nutsedge, Yellow” value [9, 17]?
A: 0

Q: What about the “Plant response rating, Nutsedge, Yellow” value [9, 18] of the same compound?
A: 0

Q: And the “Nutsedge, Yellow plant response rating” value ([9]; Preemergence, scale 0 to 100)?
A: 0

Q: What about the “Johnsongrass plant response rating” value ([10]; postemergence, 0-100 scale) of the same compound?
A: 60

Q: And the “Plant response rating, Johnsongrass” value [10, 13]?
A: 65

Q: What about the “Plant response rating, Johnsongrass” value [10, 14] of the same compound?
A: 65

Q: And the “Plant response rating, Johnsongrass” value [10, 15]?
A: 70

Q: And the “Plant response rating, Johnsongrass” value [10, 16]?
A: 20

Q: And the “Plant response rating, Johnsongrass” value [10, 19]?
A: 75

Q: And the “Plant response rating, Johnsongrass” value [10, 18]?
A: 98

Q: And the “Johnsongrass plant response rating” value ([10]; Preemergence, scale 0 to 100)?
A: 15

Q: What about the “Foxtail, Giant plant response rating” value ([11]; postemergence, 0-100 scale) of the same compound?
A: 90

Q: What about the “Plant response rating, Foxtail, Giant” value [11, 13] of the same compound?
A: 98

Q: And the “Plant response rating, Foxtail, Giant” value [11, 14]?
A: 100

Q: What about the “Plant response rating, Foxtail, Giant” value [11, 15] of the same compound?
A: 100

Q: And the “Plant response rating, Foxtail, Giant” value [11, 16]?
A: 0

Q: And the “Plant response rating, Foxtail, Giant” value [11, 19]?
A: 35

Q: What about the “Plant response rating, Foxtail, Giant” value [11, 18] of the same compound?
A: 45

Q: What about the “Foxtail, Giant plant response rating” value ([11]; Preemergence, scale 0 to 100) of the same compound?
A: 0

Q: What about the “Goosegrass plant response rating” value ([12]; postemergence, 0-100 scale) of the same compound?
A: 65

Q: And the “Plant response rating, Goosegrass” value [12, 13]?
A: 70

Q: What about the “Plant response rating, Goosegrass” value [12, 14] of the same compound?
A: 80

Q: What about the “Plant response rating, Goosegrass” value [12, 15] of the same compound?
A: 95

Q: What about the “Plant response rating, Goosegrass” value [12, 16] of the same compound?
A: 0

Q: And the “Plant response rating, Goosegrass” value [12, 19]?
A: 0

Q: And the “Plant response rating, Goosegrass” value [12, 18]?
A: 0

Q: What about the “Goosegrass plant response rating” value ([12]; Preemergence, scale 0 to 100) of the same compound?
A: 0
